Legend:
[1] = tested on: MCF-10A; assay: MTT cell survival, MCF-10A; format: cell-based; conditions: MCF-10A normal mammary epithelial cell line, 48 h
Experimental: MDA-MB-231, MCF-7 and MDA-MB-468, human breast carcinoma cell lines and MCF-10A, breast […] (American Type Culture Collection, Manassas, Va.) were grown as monolayers in RPMI 1640 supplemented with 10% FCS (Hyclone), penicillin (50 units/ml), streptomycin ([…]; Life Technologies, Inc., Grand Island, N.Y.) and endothelial growth media (Lonanza) respectively. Cells were seeded at a density of 1×10^6 cells/100-cm^2 culture dish and incubated at 37° C. in 5% CO2 and 80% relative humidity. Single-cell suspensions were obtained by trypsinization (0.05% trypsin/EDTA), and cells were counted using a Beckman cell counter.
1000× stock solutions aspirin, of a DEA/NO-ASA, and IPA/NO-ASA were made in DMSO and final concentration in the media or PBS was adjusted to 0.1% DMSO.
The effect of NONO-aspirin on cell proliferation was studied using an MTT assay. The effect of DEA/NO-ASA, IPA/NO-ASA, aspirin, IPA/NO and DEA/NO was measured using the MTT assay. Cells were plated at a concentration of 8,000-10,000 cells per well in a 96 well plate and grown overnight. Cells were treated with different concentrations of the compounds and controls for 48 h. After 48 h, a solution of 5 mg/ml MTT was added to each well and incubated for 1 h. Then the media was removed from each well and 100 uL DMSO was added to each well and the absorbance was read at 550 nm. […]

[2] = tested on: HUVEC cells; assay: Tube formation (angiogenesis) on Matrigel; format: cell-based; conditions: 12 h, even at 1 μM, compared to control
Experimental: To determine the effect of NO and HNO releasing aspirin on angiogenesis, HUVEC cells were treated with the compounds and tube formation was studied after 12 h. Matrigel (50 μL) was added to each well in a 96 well plate and incubated for 2 h at 37° C. Cell suspension treated with different concentrations of IPA/NO-aspirin, DEA/NO-aspirin and controls was added to each well at a concentration of 20,000 cells per well. After 12 hours, tube formation was measured using a microscope.

[3] = tested on: MB-231 cells stably transfected with green fluorescent protein (GFP); assay: Tumor size in nude mice implanted with MB-231-GFP cells; format: in vivo; conditions: daily injection for 5 weeks, equi-molar dosages, compared to control
Experimental: 40 Nude mice were implanted with 7.5E5 MB-231 cells stably transfected with green fluorescent protein (GFP) per animal and allowed to grow for 14 days. The animals were randomly divided into four groups: untreated as a control, aspirin treated, IPA/NO-aspirin and DEA/NO-aspirin. Treated groups were injected daily with equi-molar dosages of the corresponding compounds (DEA/NO-aspirin=16.25 mg/Kg, IPA/NO-aspirin=15.75 mg/Kg, Aspirin=9 mg/Kg) for the next 5 weeks daily and the tumor size was measured using in vivo fluorescent imaging for quantification of the GFP tag (FIG. 9A (mammary tumor) and FIG. 9B (brain tumor)). The animals were then sacrificed to assess their brain for metastasis.

[4] = tested on: E-cadherin; assay: E-cadherin expression in MDA-MB-231 cells; format: cell-based, human; conditions: MDA-MB-231, 100 μM, mRNA and protein level
Experimental: MDA-MB-231 cells were plated at a concentration of 500,000 cells per plate on 60 mm plate and grown overnight. They were then treated with 100 μM of IPA/NO-aspirin, DEA/NO-aspirin, IPA/NO, DEA/NO and aspirin for 1 to 24 h.

[5] = target: T1, glyceraldehyde-3-phosphate dehydrogenase (GAPDH) (Homo sapiens, UniProt P04406); assay: GAPDH activity, MCF-7; format: cell-based; set-up: endogenous in cells; host or cells: MDA-MB-231, MDA-MB-468, MCF-7, MCF-10A; conditions: MCF-7, 100 μM
Experimental: (§1) Cells were plated at a concentration of 30,000 cells per well and grown overnight. Cells were treated with 100 μM IPA/NO-aspirin and DEA/NO-aspirin for 1, 3, and 6 h after which 200 μL of KDalert lysis buffer was added to each well. The plate was incubated at 4° C. for 20 min to lyse the cells. 10 μL of cell lysate was transferred to a clean 96 well plate and 90 μL of KDalert mastermix was added to each well and the fluorescence was measured at excitation of 540 nm and emission of 570 nm.

[6] = NO quantified by chemiluminescence during hydrolysis; format: physicochemical; conditions: 1 mM ferricyanide solution
Experimental: In addition to HNO measurements as described above by reductive nitrosylation of metmyoglobin, NO was quantified by chemiluminescence assay, N2O by gas chromatography, and nitrite ion by the Griess assay.
Detection of HNO was also carried out using the chemiluminescence method in, 1 mM ferricyanide solution.

[7] = tested on: carrageenan induced rat paw edema; assay: Carrageenan induced rat paw edema assay; format: in vivo, Sprague-Dawley rats; conditions: for Anti-inflammatory Activity ID50: oral, 3 h after administration
Experimental: Anti-inflammatory properties were studied in vivo in a carrageenan induced rat paw edema assay after 3 h of administration of the compound orally to Sprague-Dawley rats.
To verify whether IPA/NO-aspirin and DEA/NO-aspirin retain the anti-inflammatory properties of their parent NSAID in vivo, aspirin, PA/NO-aspirin or DEA/NO-aspirin was administered to rats with paw edema induced by carrageenan.

[8] = target: T1, glyceraldehyde-3-phosphate dehydrogenase (GAPDH); assay: GAPDH activity, MCF-10A; format: cell-based; set-up: endogenous in cells; conditions: MCF-10A cell line
Experimental: as §1

T1 sequence (P04406 whole entry): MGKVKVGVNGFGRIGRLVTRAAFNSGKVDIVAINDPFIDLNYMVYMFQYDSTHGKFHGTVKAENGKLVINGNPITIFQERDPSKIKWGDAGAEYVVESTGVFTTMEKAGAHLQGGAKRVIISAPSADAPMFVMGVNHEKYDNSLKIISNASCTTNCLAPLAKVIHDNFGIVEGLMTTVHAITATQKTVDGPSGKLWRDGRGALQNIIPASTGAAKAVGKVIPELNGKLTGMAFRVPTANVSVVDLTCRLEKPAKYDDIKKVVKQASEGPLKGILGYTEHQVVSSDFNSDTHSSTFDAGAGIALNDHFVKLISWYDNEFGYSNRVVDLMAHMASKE

| Compound | cytotoxicity [1] | angiogenesis (tube formation) [2] | tumor size [3] | E-cadherin level [4] | GAPDH Activity ([5]; 1 h) | GAPDH Activity ([5]; 3 h) | GAPDH Activity ([5]; 6 h) | NO/HNO release by chemiluminescence [6] | potency relative to aspirin ([7]; less potent than parent drug) | Anti-inflammatory Activity ID50 [7] | GAPDH Activity [8] |
| --- | --- | --- | --- | --- | --- | --- | --- | --- | --- | --- | --- |
| CCN(CC)[N+]([O-])=NOCOC(=O)c1ccccc1OC(C)=O [DEA/NO-aspirin, O^2-(Acetylsalicyloyloxymethyl)-1-(N,N-Diethylamino)-diazen-1-ium-1,2-diolate] | none of the compounds showed any significant cytotoxicity | reduced angiogenesis | effective in reducing the tumor size | increased E-cadherin expression | 0.080 U/mL | 0.110 U/mL | 0.130 U/mL | shows NO release | 1.3 times | 168.6 mg/kg |  |
| CC(=O)Oc1ccccc1C(=O)OCON=[N+]([O-])NC(C)C [IPA/NO-aspirin, O^2-(Acetylsalicyloyloxymethyl)-1-(N-isopropylamino)-diazen-1-ium-1,2-diolate] | none of the compounds showed any significant cytotoxicity | reduced angiogenesis | effective in reducing the tumor size | did not show any significant change | <0.010 U/mL | <0.010 U/mL | <0.010 U/mL | showed both NO and HNO release |  | 121.3 mg/kg | did not inhibit GAPDH activity |

Source: patent publication US8633177B2, “Nitroxyl (HNO) releasing compounds and uses thereof in treating diseases” (The United States of America, as represented by the …, priority 2010, dated 2014)
